Reference: paper PMC8916643, “Molecular physiology of pumiliotoxin sequestration in a poison frog” (PLoS ONE, 2022)

Experiments:
[1] = Alkaloid feeding experiment, alkaloid abundance in tissues by LC-MS/MS; type: in vivo, Dendrobates tinctorius
Excerpt: Lab-reared (non-toxic) Dendrobates tinctorius were housed in terraria with live plants, a water pool, and a shelter. Ten adult females were size-matched, randomly assigned to control or experimental groups (N = 5 per group), and then housed individually. To measure the specific effects of PTX 251D compared to a background toxicity, the control group was fed 0.01% DHQ (Sigma-Aldrich, St. Louis, USA) in a solution of 1% EtOH and the experimental group was fed a solution of 0.01% DHQ and 0.01% PTX 251D (PepTech, Burlington, MA, USA) in a solution of 1% EtOH in water. Each frog was fed 15 μL each day for five days by pipetting the solution directly into the mouth between 10am-12pm. On the afternoon of the fifth day, frogs were euthanized by cervical transection and the dorsal skin, liver, intestines, and oocytes were dissected into Trizol (Thermo Fisher Scientific, Waltham, USA).
To isolate alkaloids, 0.3 mL of 100% EtOH was added to 1mL of organic layer from the Trizol RNA extraction, inverted 10 times, and stored at room temperature for 2–3 minutes to precipitate genomic DNA, which was pelleted by centrifugation at 2000g for 5 minutes at 4°C. Then, 300 μL of supernatant was transferred to a new microfuge tube. Proteins were precipitated by adding 900 μL of acetone, mixing by inversion for 10–15 seconds, incubating at room temperature for 10 min, and centrifuging at max speed for 10 min at 4°C. Then, 1 mL of the supernatant containing alkaloids was moved into a glass vial and stored at -20°C until dried down completely under a gentle nitrogen gas flow.
Samples were resuspended in 200 μl of methanol:chloroform 1:1 and 1 μM Nicotine-d3 (used as an internal standard). A 10-point standard curve was prepared in the same solution with DHQ and PTX 251D. A QE+ mass spectrometer coupled to an Ultimate3000 LC (ThermoFisher) was used for analysis. […] The gradient was 0% B for 1 min, then increased to 100% B in 14 min, followed by 5 min at 100% B and 3.5 min at 0% B. Data were quantified using accurate mass, using the standard curve for DHQ and PTX 251D for absolute quantification. aPTX 267A was identified by accurate mass and MS/MS fragmentation similarity to PTX.
R version 3.6.3 was used for all statistical analyses, and all plotting and statistics code is provided in a S1 File. There were instances in the LC-MS/MS data where the molecules of interest (DHQ, PTX 251D, or aPTX 267A) were not detected, and these were converted to zeros prior to statistical analyses and visualization. […] PTX 251D and DHQ were analyzed separately. The abundance of aPTX 267A was approximated using the area-under-the-curve divided by the internal nicotine standard, and as there is no standard for aPTX 267A, exact pmol values could not be calculated. […]

mice = conditions: cited from earlier work

| SMILES | DHQ abundance across tissue types ([1]; fed orally daily for five days, skin, liver, intestines, oocytes) | lethal dose (hyperactivity, convulsions, and death) (mice; injected into mice) | lethal dose relative to that of PTX 251D (mice; mice) | aPTX 267A abundance across tissues ([1]; DHQ+PTX feeding group) | aPTX 267A in the skin after PTX 251D feeding ([1]; DHQ+PTX feeding group vs DHQ-fed group, all individuals, area-under-the-curve divided by internal nicotine standard) |
| --- | --- | --- | --- | --- | --- |
| C1CCC2NCCCC2C1 (centres unmarked) [DHQ, reference compound] | highest levels occurring in the liver and skin | – | – | – | – |
| CCCCC(C)C=C1CN2CCCC2C(C)(O)C1O (centres unmarked) [aPTX 267A, allopumiliotoxin (aPTX 267A)] | – | 2 mg/kg | five times lower | greater abundance in the skin than the oocytes | higher levels than the DHQ-fed group |
